In patent US9181188B2, “Aryl ureas as kinase inhibitors” (Bayer Healthcare LLC, priority 2002, dated 2015):

melting point: 232 to 234 °C
Structure (SMILES): CNC(=O)c1cc(Oc2ccc(NC(=O)Nc3ccc(Cl)c(C(F)(F)F)c3)cc2)cc[n+]1[O-] [Example 1, N-[4-chloro-3-(trifluoromethyl)phenyl]-N′-{4-[2-(N-methylcarbamoyl)-1-oxo-(4-pyridyloxy)]phenyl}urea]
